Experimental data published in patent US11166960B2, “Modified release preparations containing oxcarbazepine and derivatives thereof” (Supernus Pharmaceuticals, Inc., priority 2006, dated 2021).
Like-named read-outs stand apart in the source and are kept apart here.

Tests used:
[1] = Solubility of oxcarbazepine in the presence of excipients; type: physicochemical; conditions: de-ionized water, thermodynamic from solid
[2] = as above; type: physicochemical
Description: The solubility of oxcarbazepine in the presence of excipients was evaluated as follows: Excipients were dissolved in phosphate buffer to make solutions with concentrations shown in Table 3. One gram of oxcarbazepine was then mixed with 19 gm of the excipient solution. The mixture was rocked overnight at room temperature and then filtered using 0.22 μm filter. The filtrates were analyzed by HPLC.

solubility [1]: 273 µg/mL
solubility ([2]; Kollidon 17 1% w/w in phosphate buffer): 171.7 µg/mL
solubility ([2]; aqueous with cosolvent or surfactant or cyclodextrin, thermodynamic from solid, Hydroxypropyl betacyclodextrin (HBCD) 5% w/w in phosphate buffer, read-out: Solubility): 1020 µg/mL
solubility ([2]; aqueous with cosolvent or surfactant or cyclodextrin, thermodynamic from solid, SLS/Stearic Acid/PEG400 5, 1, 1% w/w in phosphate buffer, read-out: Solubility): 3280 µg/mL
solubility ([2]; phosphate buffer (control, no excipient), aqueous buffer, thermodynamic from solid, Phosphate Buffer Control, room temperature overnight, read-out: Solubility): 401 µg/mL
solubility ([2]; phosphate buffer with 1% w/w Cremophor RH40, aqueous with cosolvent or surfactant or cyclodextrin, thermodynamic from solid, Cremophor RH40 1% w/w in phosphate buffer, read-out: Solubility): 314 µg/mL
solubility ([2]; phosphate buffer with 1% w/w SLS and 1% w/w HBCD, aqueous with cosolvent or surfactant or cyclodextrin, thermodynamic from solid, SLS/HBCD 1, 1% w/w in phosphate buffer, read-out: Solubility): 349 µg/mL
solubility ([2]; phosphate buffer with 5% w/w SLS and 1% w/w PEG400, aqueous with cosolvent or surfactant or cyclodextrin, thermodynamic from solid, SLS/Polyethylene Glycol 400 (PEG400) 5, 1% w/w in phosphate buffer, read-out: Solubility): 3050 µg/mL
solubility ([2]; phosphate buffer with 5% w/w docusate sodium, aqueous with cosolvent or surfactant or cyclodextrin, thermodynamic from solid, Docusate Sodium 5% w/w in phosphate buffer, read-out: Solubility): 6550 µg/mL
solubility ([2]; phosphate buffer with 5% w/w sodium lauryl sulfate (SLS), aqueous with cosolvent or surfactant or cyclodextrin, thermodynamic from solid, Sodium Lauryl Sulfate (SLS) 5% w/w in phosphate buffer, read-out: Solubility): 4110 µg/mL
SMILES: NC(=O)N1c2ccccc2CC(=O)c2ccccc21 [Oxcarbazepine]
